Reference: PMC9031226, “Preclinical Therapeutic Assessment of a New Chemotherapeutics [Dichloro(4,4’-Bis(2,2,3,3-Tetrafluoropropoxy) Methyl)-2,2’-Bipryridine) Platinum] in an Orthotopic Patient-Derived Xenograft Model of Triple-Negative Breast Cancers” (Pharmaceutics, 2022)

Columns and labels:
COLO205 = test: MTT cell viability assay on COLO205; format: cell-based, human; conditions: for reduction (proliferative inhibition): COLO205, 20 μM; for IC50: COLO205, MTT assay, 48 h
Description: Human cancer cell lines, including MDA-MB-231, MCF-7, COLO205 and SK-OV-3, used in this study were purchased from American Type Culture Collection (ATCC, Manassas, VA, USA). All cell cultures were maintained in a 5% CO2-containing incubator at 37 °C. Triple-negative breast cancer cell line MDA-MB-231 and estrogen receptor-positive breast cancer cells MCF-7 were cultured in Dulbecco’s Modified Eagle Medium/Nutrient Mixture F-12 medium (DMEM/F12, Thermo Fisher Scientific Inc., Waltham, MA, USA) supplemented with 1% HyClone Penicillin-Streptomycin 100X solution (Cytiva, Marlborough, MA, USA) and 10% (v/v) fetal bovine serum (Thermo Fisher Scientific Inc., Waltham, MA, USA). COLO205 colon cancer cells and SK-OV-3 ovarian cancer cells were cultured in Roswell Park Memorial Institute (RPMI) 1640 medium (Thermo Fisher Scientific Inc., Waltham, MA, USA) containing the same supplements as described above.
Cell viability was evaluated using MTT assay. […] A viable cell count was determined by adding MTT reagent (3-(4,5-Dimethyl-2-thiazolyl)-2,5-diphenyl-2H-tetrazolium bromide (MTT; SERVA, Heidelberg, Germany) at a concentration of 5 mg/mL in PBS followed by measurement of the absorbance at 570 nm for each well detected by μQuant™ universal microplate spectrophotometer (BioTek, Winowski, VT, USA). The assessment procedures were followed under the manufacturer’s instructions. The final results were represented as mean values in the same experimental group detected by a microplate reader.

[1] = test system: P53, Ki-67, cleaved caspase 3, PD-L1; test: Immunohistochemistry of CDX tumors; format: in vivo, mice; conditions: 5 mg/kg
From the text: Formalin-fixed and paraffin-embedded 4 μm sections of tumor and organs from cell-bearing xenograft models were stained in hematoxylin and eosin to provide an overall morphology of tissues. Tumor sections were dewaxed with UltraClear™ (J.T.Baker, Phillipsburg, NJ, USA), rehydrated in a descending series of alcohol and water and had antigens unmasked in pH 6 or pH 9 Epitope Retrieval Solution (Leica Biosystems Inc., Wetzlar, Germany) in a microwave pressure cooker. […] VisUCyte HRP Polymer Antibody against rabbit IgG (VC003-025; R&D Systems, Minneapolis, MN, USA) and mouse IgG (VC001-025; R&D Systems, Minneapolis, MN, USA) were targeted to primary antibodies. Liquid DAB+ system from Agilent Technologies (Santa Clara, CA, USA) was applied as a chromogen for visualizing. Slides were mounted after hematoxylin counterstaining. All images were scanned using Motic EasyScan Pro 6 pathology slide scanner (Motic China Group Co., Ltd., Hong Kong, China).

calf thymus DNA (ct-DNA) = test: UV-Vis spectrum of DNA-drug complex; format: binding; conditions: 25 ng/μL ct-DNA, 40-640 μM, 6 h, 37 °C
Description: The binding of the platinum-based agent with calf thymus DNA (ct-DNA) was assessed using UV-visible spectroscopy. […] Absorption between the wavelengths of 220 nm and 500 nm was detected by measuring absorbance every 2 nm via Thermo Varioskan Flash microplate reader (Thermo Fisher Scientific Inc., Waltham, MA, USA). The maximal absorbance of DNA at 260 nm was marked to highlight the spectrum in pure DNA without chemical intercalation.

MDA-MB-231 cells [2] = test: DNA fragmentation (agarose gel); format: cell-based, human; conditions: MDA-MB-231, 24 h
Description: DNA samples suspended in DNA lysis buffer containing 1.0 mM Tris hydrochloride (pH 7.5), 10 mM EDTA (pH 8.0), 10 mM sodium chloride and 0.5% Triton X-100.

MDA-MB-231 cells [3] = test: Cell cycle analysis (PI staining, flow cytometry); format: cell-based, human; conditions: 24 h; for DNA content in sub G1: without exposure 8.71%; for DNA content in S phase: without exposure 14.75%
Description: The pellet was collected and fixed in 99% ice-cold ethanol and then stored in a freezer at −20 °C for further processing of staining. To label DNA, those fixed cells were rapidly washed to remove the residual fixing agent, followed by staining with DNA intercalating agent propidium iodide solution (PI) for 30 min in the dark. The PI working solution contains 0.5% Triton X-100, 15 μg propidium iodide (PI; BioVision Inc., Milpitas, CA, USA) and 10 μg RNase A (Thermo Fisher Scientific Inc., Waltham, MA, USA) in 1 mL PBS. The measurement and acquisition of DNA content were conducted using FACSVerse^TM Flow Cytometer (BD, Franklin Lakes, NJ, USA). Cell cycle distribution in four phases (subG1, G1, S, G2/M) was gated and analyzed in Kaluza Analysis Software (Beckman Coulter Inc., Indianapolis, IN, USA).

| Compound | reduction (proliferative inhibition) (COLO205) | IC50 (COLO205) | cell viability of COLO205 cells (COLO205; MTT, 20 to 80 μM, 24 or 48 h, supplementary figure) | expression of P53, Ki-67 and PD-L1 in tumors (IHC) [1] | expression of cleaved caspase 3 in tumors (IHC) [1] | change in UV-Vis absorption spectrum of ct-DNA at 260 nm (calf thymus DNA (ct-DNA)) | DNA fragmentation (MDA-MB-231 cells [2]) | DNA content in sub G1 (MDA-MB-231 cells [3]; MDA-MB-231, 2.5 μM) | DNA content in sub G1 (MDA-MB-231 cells [3]; MDA-MB-231, 5 μM) | DNA content in sub G1 (MDA-MB-231 cells [3]; MDA-MB-231, 10 μM) | DNA content in S phase (MDA-MB-231 cells [3]; MDA-MB-231, 2.5 μM) | DNA content in S phase (MDA-MB-231 cells [3]; MDA-MB-231, 5 μM) | DNA content in S phase (MDA-MB-231 cells [3]; MDA-MB-231, 10 μM) |
| --- | --- | --- | --- | --- | --- | --- | --- | --- | --- | --- | --- | --- | --- |
| FC(F)C(F)(F)COCc1ccnc(-c2cc(COCC(F)(F)C(F)F)ccn2)c1.[Cl][Pt][Cl] [TFBPC] | 72% | 11.5 µM | effective in inhibiting the cell viability | lowest level in expressions of P53, Ki-67 and PD-L1 | highest expression of cleaved caspase 3 | hyperchromicity profile | DNA fragmentation confirms TFBPC-induced apoptosis | 14.8% | 23.14% | 27.15% | – | – | – |
| N.N.[Cl][Pt][Cl] [CDDP, Cis-diamineplatinum(II) dichloride] | 23% | 70 µM | – | lower intensity in P53, Ki-67 and PD-L1 | higher intensity of cleaved caspase 3 | hypochromic profile | no sign of cisplatin-induced PS expression or DNA fragmentation | – | – | – | 26.8% | 32.27% | 39.65% |
